Results on 18 compounds are retold here after PubChem BioAssay (NCI).

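Exposure lasted 48 hours, with cells grown in 96-well plates and compounds tested at five concentrations. TGI: concentration producing complete growth inhibition.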

Among the test systems are 786-0 renal; A498 renal; BT-549 breast; KM12 colon; MCF7 breast; MDA-MB-231 breast; NCI-H460 lung; OVCAR-5 ovarian; SF-539 CNS; UACC-257 melanoma; UACC-62 melanoma.
Assay in all cases: growth of human tumour cells (NCI), 48 h

For the compound `CC(=O)c1cc(S(=O)(=O)c2ccc(O)c(C(C)=O)c2)ccc1O`, the TGI with 786-0 renal, in the assay on A498 renal, in the assay with BT-549 breast, with KM12 colon, with MCF7 breast and in the assay on MDA-MB-231 breast was above 100 µM each time. Besides, the TGI in the assay on NCI-H460 lung, in the assay with OVCAR-5 ovarian, in the assay with SF-539 CNS, with UACC-257 melanoma and in the assay with UACC-62 melanoma was above 100 µM each time.
Take `COc1ccc(Nc2nc(NNC(=O)Cc3ccccc3)nc(NNC(=O)c3ccncc3)n2)cc1`: the TGI with 786-0 renal, with A498 renal, in the assay on BT-549 breast, with KM12 colon, in the assay with MCF7 breast and with MDA-MB-231 breast was above 10 µM throughout. In addition, the TGI in the assay with NCI-H460 lung was above 10 µM; with OVCAR-5 ovarian, above 10 µM; in the assay on SF-539 CNS, above 10 µM; with UACC-257 melanoma, above 10 µM; in the assay on UACC-62 melanoma, 8.65 µM.
Take `O=C1/C(=C(/Br)I)c2ccccc2-c2ccccc21`: the TGI in the assay with 786-0 renal was 10.2 µM; in the assay on A498 renal, 30.2 µM; in the assay with BT-549 breast, 19.1 µM; in the assay with KM12 colon, 32 µM; in the assay on MCF7 breast, 32.9 µM; with MDA-MB-231 breast, 19.2 µM. The TGI with NCI-H460 lung is 41.2 µM; with OVCAR-5 ovarian, 25.5 µM; in the assay on SF-539 CNS, 28.7 µM; with UACC-257 melanoma it was 18.5 µM; in the assay on UACC-62 melanoma, 21.2 µM.
Take `O=C(O)Cn1ncn(NC(=O)Cc2ccccc2)c1=S`: the TGI in the assay on 786-0 renal, with A498 renal, in the assay on BT-549 breast, in the assay on KM12 colon, with MCF7 breast and with MDA-MB-231 breast was above 10 µM each time. The TGI in the assay with NCI-H460 lung, in the assay on OVCAR-5 ovarian, in the assay with SF-539 CNS, in the assay on UACC-257 melanoma and with UACC-62 melanoma was above 10 µM each time.
As for `CC(=O)NC1C(OCc2ccccc2)OC(CO)C(O)C1OCC(=O)N[C@@H](C)C(=O)N[C@H](CCC(=O)NCCCCNc1c2ccccc2nc2cccc([N+](=O)[O-])c12)C(N)=O` (stereo partly drawn), the TGI in the assay with 786-0 renal was 10.1 µM; in the assay on A498 renal it was 5.9 µM; in the assay with BT-549 breast, 13.1 µM; in the assay with KM12 colon it was 5.32 µM; in the assay with MCF7 breast, 32 µM; in the assay with MDA-MB-231 breast, 9.56 µM. Further, the TGI was 3.36 µM in the assay on NCI-H460 lung; above 27.5 µM with OVCAR-5 ovarian; 6 µM in the assay on SF-539 CNS; 5.36 µM with UACC-257 melanoma; 3.13 µM in the assay on UACC-62 melanoma.
Turning to `COc1cccc(OC/C(N=Cc2ccncc2)=N/NC(=O)c2ccncc2)c1`, the TGI in the assay on 786-0 renal, in the assay on A498 renal, in the assay on BT-549 breast, in the assay on KM12 colon, in the assay with MCF7 breast and in the assay on MDA-MB-231 breast was above 100 µM each time. For the same compound, the TGI in the assay with NCI-H460 lung, in the assay on OVCAR-5 ovarian, in the assay with SF-539 CNS, in the assay with UACC-257 melanoma and in the assay with UACC-62 melanoma was above 100 µM throughout.
In the case of `CCC1(O)CC(O)c2c(O)c3c(c(O)c2C1C(=O)OC)C(=O)c1cccc(O)c1C3=O` (stereo not drawn), the TGI with 786-0 renal was 14.3 µM; in the assay on A498 renal, 18.4 µM; in the assay on BT-549 breast, 34.8 µM; in the assay with KM12 colon, 17.4 µM; in the assay on MCF7 breast it was 16.9 µM; with MDA-MB-231 breast it was 13 µM. The TGI was 14.2 µM with NCI-H460 lung; 21 µM with OVCAR-5 ovarian; 14.8 µM in the assay with SF-539 CNS; 21.8 µM in the assay on UACC-257 melanoma; 12.4 µM with UACC-62 melanoma.
Consider `Cc1cc2nc3c(N)nn(CCN(C)C)c3nc2cc1C`, for which the TGI in the assay on 786-0 renal, in the assay on A498 renal, in the assay on BT-549 breast, with KM12 colon, in the assay with MCF7 breast and in the assay with MDA-MB-231 breast was above 100 µM in each case. Besides, the TGI in the assay on NCI-H460 lung, in the assay with OVCAR-5 ovarian, in the assay on SF-539 CNS, with UACC-257 melanoma and in the assay with UACC-62 melanoma was above 100 µM each time.
On to `CC(=O)Nc1nc(C)c(S(=O)(=O)NC(=O)N2c3ccccc3CCc3ccccc32)s1`, for which the TGI in the assay on 786-0 renal, in the assay with A498 renal, in the assay on BT-549 breast, with KM12 colon, in the assay on MCF7 breast and in the assay with MDA-MB-231 breast was above 100 µM in each case. Also, the TGI in the assay with NCI-H460 lung, with OVCAR-5 ovarian, in the assay with SF-539 CNS, in the assay on UACC-257 melanoma and in the assay with UACC-62 melanoma was above 100 µM throughout.
In the case of `Cc1cc(C)c(C#N)c(SC(=S)NC(=O)c2ccccc2)n1`, the TGI in the assay with 786-0 renal, in the assay on A498 renal, with BT-549 breast, with KM12 colon, in the assay with MCF7 breast and in the assay with MDA-MB-231 breast was above 100 µM in each case. Moreover, the TGI in the assay with NCI-H460 lung, with OVCAR-5 ovarian, in the assay on SF-539 CNS, with UACC-257 melanoma and with UACC-62 melanoma was above 100 µM in each case.
`COC(=O)NC(Nc1ccc(C)cc1)(C(F)(F)F)C(F)(F)F`: the TGI with 786-0 renal, in the assay on A498 renal, in the assay with BT-549 breast, in the assay on KM12 colon, with MCF7 breast and in the assay on MDA-MB-231 breast was above 100 µM each time. The TGI in the assay on NCI-H460 lung, in the assay on OVCAR-5 ovarian, with SF-539 CNS, with UACC-257 melanoma and with UACC-62 melanoma was above 100 µM in each case.
Regarding `O=C1Sc2cc3ccccc3cc2C(=O)Sc2cc3ccccc3cc21`, the TGI in the assay with 786-0 renal was 59 µM; in the assay with A498 renal, above 100 µM; in the assay on BT-549 breast, above 100 µM; in the assay on KM12 colon it was above 100 µM; in the assay on MCF7 breast it was above 100 µM; in the assay with MDA-MB-231 breast, above 100 µM. The TGI is above 100 µM in the assay on NCI-H460 lung; above 100 µM with OVCAR-5 ovarian; above 100 µM with SF-539 CNS; above 78.7 µM in the assay with UACC-257 melanoma; 67.2 µM in the assay on UACC-62 melanoma.
Turning to `CCOC(=O)c1nc2ccccc2nc1Nc1ccc(F)cc1`, the TGI in the assay with 786-0 renal is above 72.2 µM; in the assay on A498 renal it was 58.5 µM; in the assay on BT-549 breast, 73.2 µM; in the assay with KM12 colon, above 100 µM; in the assay with MCF7 breast, above 100 µM; in the assay with MDA-MB-231 breast, 24.2 µM. Moreover, the TGI in the assay on NCI-H460 lung was above 100 µM; in the assay on OVCAR-5 ovarian it was above 100 µM; with SF-539 CNS, above 58.9 µM; with UACC-257 melanoma, above 100 µM; with UACC-62 melanoma it was above 100 µM.
In the case of `Cc1cn(C2CC(SCCO)C(CO)O2)c(=O)[nH]c1=O` (stereo not drawn), the TGI in the assay on 786-0 renal, with A498 renal, with BT-549 breast, with KM12 colon, in the assay with MCF7 breast and with MDA-MB-231 breast was above 100 µM throughout. In addition, the TGI in the assay on NCI-H460 lung, in the assay with OVCAR-5 ovarian, in the assay on SF-539 CNS, with UACC-257 melanoma and with UACC-62 melanoma was above 100 µM in each case.
For the compound `C=C1CC(Cn2cc(Br)c(=O)[nH]c2=O)(c2ccc(Br)cc2)OC1=O` (stereo not drawn), the TGI in the assay with 786-0 renal is 3.27 µM; with A498 renal, 10.2 µM; in the assay on BT-549 breast it was 8.25 µM; with KM12 colon, above 38.7 µM; in the assay on MCF7 breast, 14.4 µM; with MDA-MB-231 breast, 17.4 µM. Also, the TGI in the assay with NCI-H460 lung was determined as 35.6 µM; in the assay on OVCAR-5 ovarian, 22.5 µM; in the assay on SF-539 CNS, 23.7 µM; in the assay on UACC-257 melanoma, 4.11 µM; in the assay on UACC-62 melanoma it was 9.46 µM.
As for `Cn1c(=O)[nH]n(-c2ccc3ccccc3c2)c1=O`, the TGI in the assay on 786-0 renal, in the assay with A498 renal, in the assay on BT-549 breast, with KM12 colon, with MCF7 breast and in the assay with MDA-MB-231 breast was above 100 µM each time. In addition, the TGI in the assay on NCI-H460 lung, in the assay with OVCAR-5 ovarian, in the assay with SF-539 CNS, in the assay on UACC-257 melanoma and in the assay on UACC-62 melanoma was above 100 µM each time.
In the case of `CC(C)CCCC(C)[C@H]1CC[C@H]2NCCCC[C@]12C` (stereo partly drawn), the TGI with 786-0 renal amounted to 10.5 µM; with A498 renal it was 26.6 µM; in the assay on BT-549 breast, 29.9 µM; in the assay with KM12 colon it was 6.96 µM; in the assay with MCF7 breast it was 4.37 µM; with MDA-MB-231 breast it was 9.36 µM. Besides, the TGI with NCI-H460 lung turned out to be 4.25 µM; with OVCAR-5 ovarian, 6.03 µM; in the assay on SF-539 CNS, 19.5 µM; with UACC-257 melanoma, 9.37 µM; in the assay on UACC-62 melanoma, 3.91 µM.
On to `O=C1c2ccccc2C2(c3ccc(Cl)cc3)N[C@@H]3CCCC[C@@H]3N12` (stereo partly drawn), for which the TGI in the assay with 786-0 renal, in the assay on A498 renal, with BT-549 breast, with KM12 colon, with MCF7 breast and in the assay with MDA-MB-231 breast was above 100 µM each time. The TGI with NCI-H460 lung, with OVCAR-5 ovarian, in the assay with SF-539 CNS, in the assay with UACC-257 melanoma and with UACC-62 melanoma was above 100 µM throughout.
